pEC50: −log10 of the molar value. Where two headings read alike, the source gives them in different places. Starred links: 1 amine or outer side, 2 acyl side, 3 side chain; linkers in the order of their positions; H or OH if unused. Non-standard residues stand in square brackets, D forms with d. Groups on a side chain read outwards from the residue. No end group written: not given here. *: point of attachment. C18 diacid = O=C(O)CCCCCCCCCCCCCCCCC(=O)*; αMePhe(2-F) = C[C@](N)(Cc1ccccc1F)C(=O)O; γGlu = O=C(O)[C@H](CCC(=O)[*:2])N[*:1]; αMe4Pal = C[C@](N)(Cc1ccncc1)C(=O)O; αMeY = C[C@](N)(Cc1ccc(O)cc1)C(=O)O; 4Pal = N[C@@H](Cc1ccncc1)C(=O)O; αMeL = CC(C)C[C@](C)(N)C(=O)O; αMeS = C[C@](N)(CO)C(=O)O; Orn = NCCC[C@H](N)C(=O)O; AEEA = NCCOCCOCC(=O)O; Aib = CC(C)(N)C(=O)O
Key:
Type in all cases: cell-based
hGLP-1R [1] = target: T1, hGLP-1R (Homo sapiens, UniProt P43220); assay: Functional cAMP activity in the presence of 1% HSA; settings: read-out: cAMP Rel EC50, hGLP-1R
T1 sequence (P43220 24-463): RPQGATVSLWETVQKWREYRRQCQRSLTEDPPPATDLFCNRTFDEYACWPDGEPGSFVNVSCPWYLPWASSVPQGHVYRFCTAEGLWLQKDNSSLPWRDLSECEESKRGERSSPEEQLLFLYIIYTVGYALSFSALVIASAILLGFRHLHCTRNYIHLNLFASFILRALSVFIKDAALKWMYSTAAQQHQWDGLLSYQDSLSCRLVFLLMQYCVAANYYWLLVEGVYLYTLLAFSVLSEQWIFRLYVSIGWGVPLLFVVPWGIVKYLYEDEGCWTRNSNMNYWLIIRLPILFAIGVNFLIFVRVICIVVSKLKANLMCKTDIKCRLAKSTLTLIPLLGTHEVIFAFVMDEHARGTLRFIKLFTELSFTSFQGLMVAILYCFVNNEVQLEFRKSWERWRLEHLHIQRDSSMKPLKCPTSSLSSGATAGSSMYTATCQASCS

human GcgR = human GcgR (Homo sapiens, UniProt P47871); assay: Functional cAMP activity in the presence of 1% HSA; settings: read-out: cAMP Rel EC50, hGcgR
Sequence of human GcgR (P47871 26-477): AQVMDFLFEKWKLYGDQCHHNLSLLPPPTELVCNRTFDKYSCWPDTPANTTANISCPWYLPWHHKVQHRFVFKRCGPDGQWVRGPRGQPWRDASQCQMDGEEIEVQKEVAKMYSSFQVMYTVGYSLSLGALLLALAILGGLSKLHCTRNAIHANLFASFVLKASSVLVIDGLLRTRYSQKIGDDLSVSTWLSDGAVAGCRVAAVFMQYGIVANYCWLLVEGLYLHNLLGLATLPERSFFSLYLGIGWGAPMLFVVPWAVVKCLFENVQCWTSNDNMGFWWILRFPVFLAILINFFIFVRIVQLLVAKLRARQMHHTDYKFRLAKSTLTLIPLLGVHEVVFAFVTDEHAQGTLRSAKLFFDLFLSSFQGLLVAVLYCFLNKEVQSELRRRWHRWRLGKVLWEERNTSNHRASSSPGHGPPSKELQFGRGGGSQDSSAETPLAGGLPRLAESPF

hGIPR [2] = target: T2, hGIPR (Homo sapiens, UniProt P48546); assay: Functional cAMP activation in the presence of 0.1% casein (no HSA); settings: read-out: Relative cAMP EC50, hGIPR;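 note: intracellular cAMP rise after 30 min at 37 °C read by HTRF against a standard curve, scaled between buffer alone (0%) and top control ligand concentration (100%), four-parameter fit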
T2 sequence (P48546 22-466): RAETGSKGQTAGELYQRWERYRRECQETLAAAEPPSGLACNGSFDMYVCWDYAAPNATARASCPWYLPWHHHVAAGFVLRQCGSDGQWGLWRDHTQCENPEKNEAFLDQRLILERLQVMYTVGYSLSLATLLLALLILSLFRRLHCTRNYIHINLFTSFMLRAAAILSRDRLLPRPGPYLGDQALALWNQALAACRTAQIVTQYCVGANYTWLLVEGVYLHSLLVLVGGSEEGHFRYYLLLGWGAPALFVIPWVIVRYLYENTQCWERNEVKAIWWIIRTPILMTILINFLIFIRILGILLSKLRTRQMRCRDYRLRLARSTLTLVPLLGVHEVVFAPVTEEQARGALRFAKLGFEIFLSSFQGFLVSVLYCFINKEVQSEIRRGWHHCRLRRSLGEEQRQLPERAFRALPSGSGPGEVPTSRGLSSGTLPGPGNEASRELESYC

hGcgR = hGcgR (Homo sapiens, UniProt P47871); assay: as above; settings: read-out: Relative cAMP EC50, hGcgR;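 note: intracellular cAMP rise after 30 min at 37 °C, read by HTRF against a cAMP standard curve, scaled from buffer only (0%) to maximal control ligand response (100%)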
Sequence of hGcgR (P47871 26-477): as the sequence (P47871 26-477) above

hGIPR [3] = target: T2, hGIPR; assay: Functional cAMP activity in the presence of 1% HSA; settings: read-out: cAMP Rel EC50, hGIPR
hGLP-1R [4] = target: T1, hGLP-1R; assay: Functional cAMP activation in the presence of 0.1% casein (no HSA); settings: read-out: Relative cAMP EC50, hGLP-1R;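 for Relative cAMP EC50, hGLP-1R: intracellular cAMP rise after 30 min at 37 °C read by HTRF, normalized between buffer only (0%) and maximal control ligand (100%), four-parameter variable-slope fit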;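 for Relative cAMP EC50, hGcgR: intracellular cAMP rise after 30 min at 37 °C, read by HTRF against a cAMP standard curve, scaled from buffer only (0%) to maximal control ligand response (100%)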
[5] = in the presence of 0.1% casein (no HSA), geometric mean
[6] = 0.1% casein, no HSA, geometric mean

Molecule	pEC50 (hGLP-1R [1])	pEC50 (human GcgR)	pEC50 (hGIPR [2]; [5])	pEC50 (hGcgR; [5])	pEC50 (hGIPR [3])	pEC50 (hGLP-1R [4]; [5])	pEC50 (hGIPR [2])	pEC50 (hGcgR)	pEC50 (hGLP-1R [4])	pEC50 (hGIPR [2]; [6])	pEC50 (hGcgR; [6])	pEC50 (hGLP-1R [4]; [6])
H-Y[Aib]QGTFTSD[4Pal]S[Orn][αMeL]LDKK([γGlu-AEEA-γGlu-C18 diacid])AQ[αMe4Pal]AFIEYLIE[Aib]GPSSGAPPPSGS-NH2 [Example 868]	6.09	6.21	9.68	8.13	7.75	8.24	–	–	–	–	–	–
H-Y[Aib]QGTFTSD[4Pal]SQ[αMeL]LDKK([γGlu-γGlu-γGlu-C18 diacid])AQ[αMe4Pal]AFIEYLIE[Aib]GPSSGAPPPSGS-NH2 [Example 859]	6.27	5.65	9.92	8.07	7.49	8.62	–	–	–	–	–	–
H-Y[Aib]QGT[αMePhe(2-F)]TSD[4Pal]SILLD[Orn]K([γGlu-γGlu-C18 diacid])AQ[Aib][Orn]FIEYLQEGGPSSGAPPPSGTEE-NH2 [Example 582]	7.45	5.97	–	–	7.97	–	9.99	7.98	9.53	–	–	–
CC[C@H](C)[C@H](NC(=O)[C@H](Cc1ccccc1)NC(=O)[C@H](C)NC(=O)[C@](C)(Cc1ccncc1)NC(=O)[C@H](CCC(N)=O)NC(=O)[C@H](C)NC(=O)[C@H](CCCCNC(=O)COCCOCCNC(=O)CC[C@H](NC(=O)CC[C@H](NC(=O)CCCCCCCCCCCCCCCCC(=O)O)C(=O)O)C(=O)O)NC(=O)[C@H](CCCCN)NC(=O)[C@H](CC(=O)O)NC(=O)[C@H](CC(C)C)NC(=O)[C@](C)(CC(C)C)NC(=O)[C@H](CCC(N)=O)NC(=O)[C@H](CO)NC(=O)[C@H](Cc1ccncc1)NC(=O)[C@H](CC(=O)O)NC(=O)[C@H](CO)NC(=O)[C@@H](NC(=O)[C@H](Cc1ccccc1)NC(=O)[C@@H](NC(=O)CNC(=O)[C@H](CCC(N)=O)NC(=O)C(C)(C)NC(=O)[C@@H](N)Cc1ccc(O)cc1)[C@@H](C)O)[C@@H](C)O)C(=O)N[C@@H](CCC(=O)O)C(=O)N[C@@H](Cc1ccc(O)cc1)C(=O)N[C@@H](CC(C)C)C(=O)N[C@H](C(=O)N[C@@H](CCC(=O)O)C(=O)N[C@H](C)C(=O)NCC(=O)N1CCC[C@H]1C(=O)N[C@@H](CO)C(=O)N[C@@H](CO)C(=O)NCC(=O)N[C@@H](C)C(=O)N1CCC[C@H]1C(=O)N1CCC[C@H]1C(=O)N1CCC[C@H]1C(=O)N[C@@H](CO)C(=O)NCC(=O)N[C@@H](CO)C(=O)N[C@@H](CCC(=O)O)C(N)=O)[C@@H](C)CC [Example 1024]	6.48	6.12	9.36	7.97	7.49	8.32	–	–	–	–	–	–
Y[Aib]QGT[αMePhe(2-F)]TSD[4Pal]SI[αMeL]LD[Orn]K([AEEA-γGlu-C18 diacid])AQ[αMe4Pal][Orn]FI[dE][αMeY]LIEGGPSSGEPPPEGT[dE]-NH2 [Example 691]	7.54	6.51	–	–	8.93	–	10.93	8.61	9.59	–	–	–
H-Y[Aib]QGTFTSDFS[Orn][αMeL]LDKK([AEEA-γGlu-γGlu-C18 diacid])AQ[Aib]AFIEYLLE[Aib]GHSSGAPPPSGS-NH2 [Example 243]	6.21	6.15	9.75	8.16	7.92	8.19	–	–	–	–	–	–
H-Y[Aib]QGT[αMePhe(2-F)]TSD[4Pal][αMeS]I[αMeL]LD[Orn][Orn]([AEEA-γGlu-C18 diacid])AQ[αMe4Pal]EFI[dE][αMeY]LIEGGPSSGAPPPSGGGE-NH2 [Example 1213]	7.36	6.57	–	–	9.21	–	–	–	–	11.14	8.77	9.37
H-Y[Aib]QGTFTSD[4Pal]SR[αMeL]LDKK([γGlu-γGlu-C18 diacid])AQ[αMe4Pal]AFIEYLIAGGPSSGAPPPSGSEE-NH2 [Example 962]	6.88	6.31	10.01	8.50	8.01	8.87	–	–	–	–	–	–
H-Y[Aib]QGTFTSD[4Pal]S[Orn][αMeL]LDKK([AEEA-γGlu-C18 diacid])AQ[αMe4Pal]AFIE[αMe4Pal]LIEGGPSSGAPPPSGS-NH2 [Example 949]	6.14	6.50	9.69	8.79	7.59	8.47	–	–	–	–	–	–
H-Y[Aib]QGTFTSDFS[Orn][αMeL]LDKK([AEEA-γGlu-C18 diacid])AQ[Aib]AFIEYLLEGGPSSGAPPPGG[4Pal]-NH2 [Example 261]	6.42	6.28	9.54	8.26	7.42	8.51	–	–	–	–	–	–
H-Y[Aib]QGT[αMePhe(2-F)]TSD[4Pal][αMeS]I[αMeL]LD[Orn]K([γGlu-γGlu-C18 diacid])AQ[αMe4Pal]EFI[dE][αMeY]LIEGGPSSGAPPPSGGGEE-NH2 [Example 1218]	7.31	6.73	–	–	9.20	–	–	–	–	11.08	8.73	9.24
H-Y[Aib]QGTFTSD[4Pal][αMeS]Q[αMeL]LD[Orn]K([dE-γGlu-C18 diacid])AQ[αMe4Pal]QFIQ[αMeY]LIE[Aib]GPSSGAPPPSGGGE-NH2 [Example 1186]	7.28	6.79	10.39	8.84	8.50	9.23	–	–	–	–	–	–
CC[C@H](C)[C@H](NC(=O)[C@H](CC(C)C)NC(=O)[C@](C)(Cc1ccc(O)cc1)NC(=O)[C@@H](CCC(=O)O)NC(=O)[C@@H](NC(=O)[C@H](Cc1ccccc1)NC(=O)[C@H](CCC(=O)O)NC(=O)C(C)(C)NC(=O)[C@H](C)NC(=O)[C@H](C)NC(=O)[C@H](CCCCNC(=O)COCCOCCNC(=O)CC[C@H](NC(=O)CCCCCCCCCCCCCCCCC(=O)O)C(=O)O)NC(=O)[C@H](CCCN)NC(=O)[C@H](CC(=O)O)NC(=O)[C@H](CC(C)C)NC(=O)[C@](C)(CC(C)C)NC(=O)[C@@H](NC(=O)[C@](C)(CO)NC(=O)[C@H](Cc1ccncc1)NC(=O)[C@H](CC(=O)O)NC(=O)[C@H](CO)NC(=O)[C@@H](NC(=O)[C@](C)(Cc1ccccc1F)NC(=O)[C@@H](NC(=O)CNC(=O)[C@H](CCC(N)=O)NC(=O)C(C)(C)NC(=O)[C@@H](N)Cc1ccc(O)cc1)[C@@H](C)O)[C@@H](C)O)[C@@H](C)CC)[C@@H](C)CC)C(=O)N[C@@H](CCC(=O)O)C(=O)NCC(=O)NCC(=O)N1CCC[C@H]1C(=O)N[C@@H](CO)C(=O)N[C@@H](CO)C(=O)NCC(=O)N[C@@H](C)C(=O)N1CCC[C@H]1C(=O)N1CCC[C@H]1C(=O)N1CCC[C@H]1C(=O)N[C@@H](CO)C(=O)NCC(=O)N[C@H](C(=O)NCC(=O)N[C@@H](CCC(=O)O)C(N)=O)[C@@H](C)O [Example 689]	7.60	6.74	–	–	9.02	–	10.98	8.74	9.67	–	–	–
H-Y[Aib]QGTFTSD[4Pal]SK[αMeL]LDKK([AEEA-γGlu-C18 diacid])AQ[Aib]AFIEYLIA[Aib]GESSGEPPPSGS-NH2 [Example 287]	6.25	6.54	10.20	8.60	8.00	8.37	–	–	–	–	–	–
H-Y[Aib]QGT[αMePhe(2-F)]TSD[4Pal]SI[αMeL]LD[Orn]K([AEEA-γGlu-C18 diacid])AQ[αMe4Pal][Orn]FI[dE][αMeY]LIEGGPSSGEPPPETE-NH2 [Example 678]	7.66	6.61	–	–	9.03	–	10.88	8.64	9.60	–	–	–
H-Y[Aib]QGT[αMePhe(2-F)]TSD[4Pal][αMeS]I[αMeL]LD[Orn]K([AEEA-γGlu-γGlu-C18 diacid])AQ[αMe4Pal]EFI[dE][αMeY]LIEGGPSSGEPPPSGGGE-NH2 [Example 1181]	7.32	6.69	10.94	8.48	9.18	9.18	–	–	–	–	–	–
H-Y[Aib]QGT[αMePhe(2-F)]TSD[4Pal][αMeS]I[αMeL]LD[Orn]K([γGlu-γGlu-C18 diacid])AQ[Aib][Orn]FI[dE]YLIEGGPSSGEPPPSGTGE-NH2 [Example 523]	7.57	6.63	–	–	9.06	–	10.68	8.42	9.32	–	–	–
Y[Aib]QGT[αMePhe(2-F)]TSD[4Pal][αMeS]I[αMeL]LD[Orn]K([AEEA-γGlu-C18 diacid])AQ[αMe4Pal]EFI[dE][αMeY]LVEGGPSSGEPPPSGGGE-NH2 [Example 735]	7.39	6.63	–	–	8.88	–	10.92	8.71	9.41	–	–	–

Source: US20240270821A1, “GIP/GLP1/GCG TRI-RECEPTOR AGONISTS AND USES THEREOF” (priority 2023, published 2024)
